Experimental data published in paper PMC9288506, “Compounds activating VCP D1 ATPase enhance both autophagic and proteasomal neurotoxic protein clearance” (Nature Communications, 2022).

Key:
Assay in all cases: biochemical
Set-up in all cases: Thermo Fisher in vitro kinase panel, per cent inhibition of kinase activity at 10 uM
ACVR1B (ALK4) = ACVR1B (ALK4) (Homo sapiens, UniProt P36896)
Method: (§1) Kinase profiling of SMER28 and analogs SMER28 and analogs were tested at 10 µM in a panel of 123 kinases at ThermoFisher Scientific. Follow-up of selected kinases for SMER28 and analogs was also performed at ThermoFisher Scientific. Data are shown in Supplementary Data 2 and 3. […] An inhibition of PIK3C could induce autophagy, mediated by signaling through the AKT/mTOR axis[45].

AKT1 (PKB alpha) = AKT1 (PKB alpha) (Homo sapiens, UniProt P31749)
Method: as §1

AKT2 (PKB beta) = AKT2 (PKB beta) (Homo sapiens, UniProt P31751)
Method: as §1

AXL = AXL (Homo sapiens, UniProt P30530)
Method: as §1

BLK = BLK (Homo sapiens, UniProt P51451)
Method: as §1

EGFR (ErbB1) = EGFR (ErbB1) (Homo sapiens, UniProt P00533)
Method: as §1

FER = FER (Homo sapiens, UniProt P16591)
Method: as §1

FES (FPS) = FES (FPS) (Homo sapiens, UniProt P07332)
Method: as §1

FGFR1 = FGFR1 (Homo sapiens, UniProt P11362)
Method: as §1

FGFR1 V561M = FGFR1 V561M (Homo sapiens, UniProt P11362, V561M)
Method: as §1

FGFR3 = FGFR3 (Homo sapiens, UniProt P22607)
Method: as §1

LCK = LCK (Homo sapiens, UniProt P06239)
Method: as §1

MAP3K9 (MLK1) = MAP3K9 (MLK1) (Homo sapiens, UniProt P80192)
Method: as §1

MAPKAPK5 (PRAK) = MAPKAPK5 (PRAK) (Homo sapiens, UniProt Q8IW41)
Method: as §1

MARK2 = MARK2 (Homo sapiens, UniProt Q7KZI7)
Method: as §1

NEK2 = NEK2 (Homo sapiens, UniProt P51955)
Method: as §1

NUAK1 (ARK5) = NUAK1 (ARK5) (Homo sapiens, UniProt O60285)
Method: as §1

PDGFRB (PDGFR beta) = PDGFRB (PDGFR beta) (Homo sapiens, UniProt P09619)
Method: as §1

PI4KB (PI4K beta) = PI4KB (PI4K beta) (Homo sapiens, UniProt Q9UBF8)
Method: as §1

PIK3C3 (hVPS34) = PIK3C3 (hVPS34) (Homo sapiens, UniProt Q8NEB9)
Method: as §1

PRKCA (PKC alpha) = PRKCA (PKC alpha) (Homo sapiens, UniProt P17252)
Method: as §1

PRKG1 = PRKG1 (Homo sapiens, UniProt Q13976)
Method: as §1

PTK2 (FAK) = PTK2 (FAK) (Homo sapiens, UniProt Q05397)
Method: as §1

SGK (SGK1) = SGK (SGK1) (Homo sapiens, UniProt O00141)
Method: as §1

STK17A (DRAK1) = STK17A (DRAK1) (Homo sapiens, UniProt Q9UEE5)
Method: as §1

FGFR1, sequence (P11362 whole entry): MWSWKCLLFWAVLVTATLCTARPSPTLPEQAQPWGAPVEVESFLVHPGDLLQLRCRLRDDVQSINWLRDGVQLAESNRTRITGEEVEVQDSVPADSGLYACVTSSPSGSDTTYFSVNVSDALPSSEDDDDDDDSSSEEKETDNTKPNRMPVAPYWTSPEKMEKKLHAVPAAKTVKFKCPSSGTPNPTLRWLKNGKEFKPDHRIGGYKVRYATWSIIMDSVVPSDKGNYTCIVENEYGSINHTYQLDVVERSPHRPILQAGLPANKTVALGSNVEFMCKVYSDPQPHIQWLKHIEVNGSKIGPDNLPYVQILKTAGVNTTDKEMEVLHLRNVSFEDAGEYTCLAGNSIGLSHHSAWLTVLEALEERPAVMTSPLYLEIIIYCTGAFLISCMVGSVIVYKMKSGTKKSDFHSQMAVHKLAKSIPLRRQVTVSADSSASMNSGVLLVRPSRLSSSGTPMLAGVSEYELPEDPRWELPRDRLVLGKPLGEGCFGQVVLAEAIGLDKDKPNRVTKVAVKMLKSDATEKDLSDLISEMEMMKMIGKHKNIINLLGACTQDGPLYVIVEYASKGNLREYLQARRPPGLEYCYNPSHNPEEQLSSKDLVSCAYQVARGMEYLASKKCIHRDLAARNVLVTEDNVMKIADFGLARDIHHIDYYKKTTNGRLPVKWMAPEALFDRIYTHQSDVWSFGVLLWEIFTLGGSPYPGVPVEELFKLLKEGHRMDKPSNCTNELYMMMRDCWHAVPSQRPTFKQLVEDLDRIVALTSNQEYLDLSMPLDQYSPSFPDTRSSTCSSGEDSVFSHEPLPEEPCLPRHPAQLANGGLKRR
SGK (SGK1), sequence (O00141 whole entry): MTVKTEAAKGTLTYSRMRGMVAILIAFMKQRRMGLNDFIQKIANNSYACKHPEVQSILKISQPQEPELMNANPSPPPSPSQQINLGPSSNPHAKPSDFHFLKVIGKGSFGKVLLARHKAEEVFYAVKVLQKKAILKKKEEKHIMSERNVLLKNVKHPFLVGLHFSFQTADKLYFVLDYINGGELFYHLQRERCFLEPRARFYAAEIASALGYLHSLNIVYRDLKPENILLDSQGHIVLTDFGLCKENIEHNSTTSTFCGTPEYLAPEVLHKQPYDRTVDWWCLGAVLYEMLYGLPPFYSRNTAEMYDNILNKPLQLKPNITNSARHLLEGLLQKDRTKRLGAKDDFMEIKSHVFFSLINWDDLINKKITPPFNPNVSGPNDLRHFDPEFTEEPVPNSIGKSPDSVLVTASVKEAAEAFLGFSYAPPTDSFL
AKT1 (PKB alpha), sequence (P31749 whole entry): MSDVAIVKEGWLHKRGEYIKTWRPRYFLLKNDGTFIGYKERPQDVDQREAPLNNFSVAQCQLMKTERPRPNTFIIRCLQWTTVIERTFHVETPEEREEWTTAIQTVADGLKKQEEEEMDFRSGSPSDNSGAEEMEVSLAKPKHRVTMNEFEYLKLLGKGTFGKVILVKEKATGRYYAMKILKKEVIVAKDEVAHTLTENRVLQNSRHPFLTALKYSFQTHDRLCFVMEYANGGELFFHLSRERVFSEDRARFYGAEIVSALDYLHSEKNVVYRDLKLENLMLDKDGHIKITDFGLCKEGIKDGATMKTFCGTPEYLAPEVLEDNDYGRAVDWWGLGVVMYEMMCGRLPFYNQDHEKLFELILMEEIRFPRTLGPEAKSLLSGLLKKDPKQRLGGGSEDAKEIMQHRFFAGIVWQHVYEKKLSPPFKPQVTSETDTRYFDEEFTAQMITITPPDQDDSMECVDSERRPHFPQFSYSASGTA
FGFR3, sequence (P22607 whole entry): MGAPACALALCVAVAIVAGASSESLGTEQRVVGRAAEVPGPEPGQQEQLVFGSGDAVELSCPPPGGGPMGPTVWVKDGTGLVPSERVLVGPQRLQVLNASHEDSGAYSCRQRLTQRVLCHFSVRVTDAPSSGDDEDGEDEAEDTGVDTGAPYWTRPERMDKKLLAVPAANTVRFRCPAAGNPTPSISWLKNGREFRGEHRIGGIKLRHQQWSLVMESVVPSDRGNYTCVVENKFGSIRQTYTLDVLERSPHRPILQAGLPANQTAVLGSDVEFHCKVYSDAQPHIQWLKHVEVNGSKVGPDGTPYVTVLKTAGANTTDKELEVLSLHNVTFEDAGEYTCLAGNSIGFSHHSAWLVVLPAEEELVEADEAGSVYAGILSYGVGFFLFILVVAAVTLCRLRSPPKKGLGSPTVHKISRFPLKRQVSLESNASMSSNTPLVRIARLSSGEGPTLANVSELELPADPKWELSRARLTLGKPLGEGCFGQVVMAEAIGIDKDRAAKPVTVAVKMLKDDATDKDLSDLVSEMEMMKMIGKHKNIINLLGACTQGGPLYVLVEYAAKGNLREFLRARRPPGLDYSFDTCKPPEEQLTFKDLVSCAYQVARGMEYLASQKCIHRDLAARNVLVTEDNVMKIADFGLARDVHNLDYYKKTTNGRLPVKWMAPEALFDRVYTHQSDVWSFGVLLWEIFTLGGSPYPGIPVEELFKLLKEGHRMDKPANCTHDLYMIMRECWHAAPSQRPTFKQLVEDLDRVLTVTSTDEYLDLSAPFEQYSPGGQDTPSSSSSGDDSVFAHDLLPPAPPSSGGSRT
EGFR (ErbB1), sequence (P00533 whole entry): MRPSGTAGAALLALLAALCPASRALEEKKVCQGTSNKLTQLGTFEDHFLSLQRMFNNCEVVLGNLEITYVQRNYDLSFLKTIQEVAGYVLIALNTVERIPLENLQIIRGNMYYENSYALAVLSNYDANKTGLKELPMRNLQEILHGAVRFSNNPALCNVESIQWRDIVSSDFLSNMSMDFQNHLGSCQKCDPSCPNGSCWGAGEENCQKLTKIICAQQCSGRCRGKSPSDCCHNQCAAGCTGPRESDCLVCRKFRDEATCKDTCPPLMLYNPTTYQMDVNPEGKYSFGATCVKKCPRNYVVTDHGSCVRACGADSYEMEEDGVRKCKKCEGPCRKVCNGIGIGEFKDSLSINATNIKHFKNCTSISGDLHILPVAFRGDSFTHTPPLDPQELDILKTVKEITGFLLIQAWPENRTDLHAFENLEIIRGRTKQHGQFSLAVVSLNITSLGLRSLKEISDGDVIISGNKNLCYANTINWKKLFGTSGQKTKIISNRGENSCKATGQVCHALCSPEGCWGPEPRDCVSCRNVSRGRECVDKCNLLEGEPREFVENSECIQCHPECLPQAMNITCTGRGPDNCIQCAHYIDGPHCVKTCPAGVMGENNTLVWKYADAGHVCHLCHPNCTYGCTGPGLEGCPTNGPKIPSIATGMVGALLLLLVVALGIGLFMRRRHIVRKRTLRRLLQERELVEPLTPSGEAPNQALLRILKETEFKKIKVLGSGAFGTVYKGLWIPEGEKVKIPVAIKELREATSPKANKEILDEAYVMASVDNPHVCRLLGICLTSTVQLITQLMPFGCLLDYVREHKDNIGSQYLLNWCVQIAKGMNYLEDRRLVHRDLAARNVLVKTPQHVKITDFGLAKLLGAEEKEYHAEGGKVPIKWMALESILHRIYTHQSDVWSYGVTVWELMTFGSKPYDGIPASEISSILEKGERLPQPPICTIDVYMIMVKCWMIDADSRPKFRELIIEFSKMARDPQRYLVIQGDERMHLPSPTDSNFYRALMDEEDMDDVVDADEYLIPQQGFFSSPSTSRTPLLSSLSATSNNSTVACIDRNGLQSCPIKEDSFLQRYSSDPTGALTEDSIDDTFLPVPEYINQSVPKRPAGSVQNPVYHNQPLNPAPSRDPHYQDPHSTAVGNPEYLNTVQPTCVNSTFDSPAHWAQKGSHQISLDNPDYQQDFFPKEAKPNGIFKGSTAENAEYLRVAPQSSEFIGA
LCK, sequence (P06239 whole entry): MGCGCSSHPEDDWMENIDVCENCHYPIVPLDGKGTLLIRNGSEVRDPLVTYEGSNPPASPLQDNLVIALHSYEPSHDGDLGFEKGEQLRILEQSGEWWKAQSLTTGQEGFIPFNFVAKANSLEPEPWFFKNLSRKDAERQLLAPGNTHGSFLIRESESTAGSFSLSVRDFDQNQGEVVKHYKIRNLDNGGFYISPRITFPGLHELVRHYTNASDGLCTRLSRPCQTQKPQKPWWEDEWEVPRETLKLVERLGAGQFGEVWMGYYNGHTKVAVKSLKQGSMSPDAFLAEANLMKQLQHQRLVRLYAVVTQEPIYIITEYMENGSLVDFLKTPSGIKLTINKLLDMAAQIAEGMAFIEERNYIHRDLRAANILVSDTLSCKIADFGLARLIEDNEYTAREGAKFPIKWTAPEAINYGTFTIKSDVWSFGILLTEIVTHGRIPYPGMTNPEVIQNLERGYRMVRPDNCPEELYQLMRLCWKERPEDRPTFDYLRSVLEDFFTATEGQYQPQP
FGFR1 V561M, sequence (P11362 whole entry V561M): as the sequence (P11362 whole entry) above, with V561M counted along it

Compound: C=CCNc1ncnc2ccc(Br)cc12 [SMER28]
- inhibition at 10 µM (ACVR1B (ALK4)): -19%
- inhibition at 10 µM (AKT1 (PKB alpha)): 3%
- inhibition at 10 µM (AKT2 (PKB beta)): -8%
- inhibition at 10 µM (AXL): 17%
- inhibition at 10 µM (BLK): 4%
- inhibition at 10 µM (EGFR (ErbB1)): 12%
- inhibition at 10 µM (FER): 16%
- inhibition at 10 µM (FES (FPS)): 8%
- inhibition at 10 µM (FGFR1): 27%
- inhibition at 10 µM (FGFR1 V561M): 9%
- inhibition at 10 µM (FGFR3): -7%
- inhibition at 10 µM (LCK): 19%
- inhibition at 10 µM (MAP3K9 (MLK1)): -2%
- inhibition at 10 µM (MAPKAPK5 (PRAK)): 8%
- inhibition at 10 µM (MARK2): 9%
- inhibition at 10 µM (NEK2): -1%
- inhibition at 10 µM (NUAK1 (ARK5)): 40%
- inhibition at 10 µM (PDGFRB (PDGFR beta)): 8%
- inhibition at 10 µM (PI4KB (PI4K beta)): 66%
- inhibition at 10 µM (PIK3C3 (hVPS34)): 12%
- inhibition at 10 µM (PRKCA (PKC alpha)): 10%
- inhibition at 10 µM (PRKG1): 6%
- inhibition at 10 µM (PTK2 (FAK)): 8%
- inhibition at 10 µM (SGK (SGK1)): 15%
- inhibition at 10 µM (STK17A (DRAK1)): 34%
